Data on 1 compound can be found in patent US11879145B2, “Reagents and methods for replication, transcription, and translation in semi-synthetic organisms” (The Scripps Research Institute, priority 2019, dated 2024).

This experiment concerns sfGFP^151(AXC). In words: In vivo translation screen of XTPs/YTPs: protein shift (AzK incorporation) by DBCO-TAMRA western blot. Type of experiment: cell-based, E. coli. As to conditions: TPT3TP 30 μM, dCNMO-dTPT3 UBP, strain ML2. As to the method: In vivo Translation Screen of XTPs/YTPs. An overnight culture of the SSO strain ML2 carrying the pGEX-MbPylRS TetR plasmid was grown in 2×YT supplemented with 50 mM potassium phosphate, […] chloramphenicol and 100 μg/mL carbenicillin (herein referred to in this section as “media”), then diluted back to an OD600 of 0.03 in the same media and grown to an OD600 of 0.4 to 0.6. The culture was then chilled with shaking over ice-water for 15 minutes then pelleted by centrifugation at 3,200×g for 10 min. Cells were then resuspended and washed with ice-cold ddH2O twice then resuspended in ice-cold ddH2O to OD600 of 55-65. The electrocompetent cells (50 μL) and 1 ng of Golden Gate assembled plasmid with the UBP within the sfGFP and tRNAPyl genes (see Golden Gate Assembly of Plasmids) were transferred to a pre-chilled electroporation cuvette (0.2-cm-gap), then electroporated (Gene Pulser II; Bio-Rad) according to manufacturer's recommendations (voltage […], capacitor 2.5 μF, resistor 200Ω), and then immediately diluted with 950 μL of media. An aliquot (40 μL) of the transformation was then diluted five-fold in media supplemented with dCNMOTP (25 μM) and dTPT3TP (10 μM) for a final volume of 200 μL then allowed to recover for 1 h shaking at 37° C. Two-fold dilutions of the recovery were plated onto solid media supplemented with zeocin (50 μg/mL), dCNMOTP (10 μM), dTPT3TP (10 μM), and agar (2% w/v), then grown at 37° C. for 18 h. Single colonies were picked and grown in media (300 μL) supplemented with 50 μg/mL zeocin and provided dCNMOTP (25 μM) and dTPT3TP (10 μM) (herein afterward referred to in this section as “growth media”). The culture was monitored for cell growth (Envision 2103 Multilabel Plate Reader with a 590/20 nm filter) and then collected at an OD600˜1.0. An aliquot (50 μL) was subjected to plasmid isolation using the ZR Plasmid Prep Kit (Zymo Research). Isolated plasmids were then subjected to the streptavidin gel shift assay described below (using primers P3-4 and P5-6, Table S1) to determine UBP retention.
A colony with excellent UBP retention was then diluted to an OD600˜0.01 in growth media and grown to OD600˜0.4-0.6. This culture was then divided into multiple 300 μL cultures and for the screen of XTP analogs, each was provided with the corresponding XTP (at either 25 μM or 250 μM) or ddH2O for “−XTP” samples, TPT3TP (30 μM), and AzK (10 mM). For the screen of YTP analogs, each 300 μL culture was provided with the corresponding YTP (at either 25 μM or 250 μM) or ddH2O for “−YTP” samples, NaMTP (250 μM), and AzK (10 mM). Samples were shielded from light after addition of AzK to prevent photodegradation. These samples were then grown at 37° C. for 20 min before adding 1 mM IPTG and grown at 37° C. for an additional 1 h to induce T7 RNAP and transcription of tRNAPyl and PylRS. From this point on, cells were monitored for growth and fluorescence. Expression of sfGFP was then induced with anhydrotetracycline (100 ng/mL). After an additional 3 h of growth at 37° C., cells were collected (230 μL for affinity purification of sfGFP), cooled, and then pelleted and stored at −80° C. before protein purification.
Affinity Purification of sfGFP. Cell pellets collected from translation experiments were resuspended in BugBuster (100 μL 1×, EMD Millipore) and shaken at room temperature for 15 min. […]

As for `COc1cc(C)c(F)cc1[C@@H]1O[C@H](COP(=O)(O)OP(=O)(O)OP(=O)(O)O)[C@@H](O)[C@H]1O` [Compound 5FMTP], the “sfGFP protein gel shift (ncAA incorporation)” value reads like this: (XTP 25 μM) 94%; (XTP 250 μM) 98%.
